From ChEMBL document CHEMBL4808184, “Discovery and Optimization of DNA Gyrase and Topoisomerase IV Inhibitors with Potent Activity against Fluoroquinolone-Resistant Gram-Positive Bacteria” (J Med Chem, 2021)
≈ marks a conversion by molar mass, not a printed value.

What was measured:
Staphylococcus aureus [1] = assay: microbe, parasite or virus in culture; conditions: ATCC 49951
physchem [2] = conditions: octanol/water, pH 7.4
Staphylococcus aureus [3] = assay: microbe, parasite or virus in culture; conditions: ATCC 49951; remark: listed apart in the source
physchem [4] = assay: physchem
HepG2 = assay: cells; conditions: Homo sapiens, HepG2, 72 h
in vivo [5] = conditions: rat, iv
in vivo [6] = conditions: rat, po, 5 mg/kg
in vitro [7] = conditions: human, plasma
K562 = assay: cells; conditions: Homo sapiens, K562, 72 h
in vitro [8] = conditions: CD1, mouse, plasma
in vitro [9] = conditions: Sprague-Dawley, rat, plasma
in vivo [10] = conditions: rat, po, 5 mg/kg; remark: listed apart in the source
in vivo [11] = conditions: rat, po, 5 mg/kg; remark: listed apart in the source
in vivo [12] = conditions: rat, 5 mg/kg

| Structure (SMILES) | MIC (Staphylococcus aureus [1]) [µg/mL] | logD (physchem [2]) | MIC (Staphylococcus aureus [3]) [µg/mL] | pKa (physchem [4]) | other results |
| --- | --- | --- | --- | --- | --- |
| C[C@H]1Cc2c(N3CC[C@@H](C4(N)CC4)C3)c(F)cc3cc(C(=O)O)c(=O)n1c23 | 0.25 (≈ 0.673 µM) | -0.51 | 8 (≈ 21.5 µM) |  |  |
| C[C@H]1COc2c(N3CC[C@@H](C4(N)CC4)C3)c(F)c(N)c3cc(C(=O)O)c(=O)n1c23 | 0.5 (≈ 1.24 µM) | -0.97 | 8 (≈ 19.9 µM) |  |  |
| C[C@H]1COc2c(N3CC[C@@H](C4(N)CC4)C3)c(F)c(Cl)c3cc(C(=O)O)c(=O)n1c23 | ≤ 0.03 | -0.46 | 0.5 (≈ 1.19 µM) |  |  |
| C[C@@H]1COc2c(N3CC[C@@H](C4(N)CC4)C3)c(F)cc3cc(C(=O)O)c(=O)n1c23 | 16 (≈ 41.3 µM) | -0.92 | > 32 |  |  |
| C[C@H]1COc2c(N3CC[C@@H](C4(N)CC4)C3)cc(C#N)c3cc(C(=O)O)c(=O)n1c23 | 0.25 (≈ 0.634 µM) | -0.55 | 2 (≈ 5.07 µM) |  |  |
| C[C@H]1COc2c(N3C[C@@H]4CCC[C@H](N)[C@H]4C3)c(F)cc3cc(C(=O)O)c(=O)n1c23 | 0.06 (≈ 0.149 µM) | -1.03 | 0.5 (≈ 1.25 µM) | 5.2 |  |
| C[C@H]1COc2c(N3CC[C@@H](C4(N)CC4)C3)cc(F)c3cc(C(=O)O)c(=O)n1c23 | 0.25 (≈ 0.645 µM) | -0.4 | 2 (≈ 5.16 µM) |  |  |
| C[C@H]1COc2c(N3CC4OCC[C@@H](N)[C@H]4C3)c(F)cc3cc(C(=O)O)c(=O)n1c23 (single isomer, unassigned) | 0.125 (≈ 0.31 µM) | -1.66 | 1 (≈ 2.48 µM) | 5.2 |  |
| C[C@H]1COc2c(N3C[C@H]4[C@H](C3)OCC[C@@H]4N)c(F)cc3cc(C(=O)O)c(=O)n1c23 | ≤ 0.03 | -1.72 | 1 (≈ 2.48 µM) | 4.8 |  |
| Cc1c(N2CC[C@@H](C3(N)CC3)C2)c(F)cc2cc(-c3nnco3)c(=O)n(C3CC3)c12 | 0.125 (≈ 0.305 µM) |  | 0.125 (≈ 0.305 µM) | 8.3 |  |
| C[C@H]1COc2c(N3C[C@@H]4CCCN[C@@H]4C3)c(F)cc3cc(C(=O)O)c(=O)n1c23 | 1 (≈ 2.58 µM) | -1.46 | 32 (≈ 82.6 µM) | 5 |  |
| Cc1c(N2CCC(C3(N)CC3)C2)c(F)cc2c(Cc3noc(=S)[nH]3)cc(=O)n(C3CC3)c12 (stereo unspecified) | 8 (≈ 17.6 µM) | -0.3 | 8 (≈ 17.6 µM) | 2.5 |  |
| Cc1c(N2CCC(C3(N)CC3)C2)c(F)cc2c(-c3cc(O)no3)cc(=O)n(C3CC3)c12 (stereo unspecified) | 1 (≈ 2.36 µM) | 0.29 | 2 (≈ 4.71 µM) | 4.7 |  |
| CO[C@@H]1CC2CN(c3c(F)cc4cc(C(=O)O)c(=O)n5c4c3OC[C@@H]5C)C[C@@H]2[C@H](N)C1 (single isomer, unassigned) | ≤ 0.03 | -1.5 | 0.25 (≈ 0.579 µM) | 5.2 |  |
| C[C@H]1COc2c(N3CC[C@H](N)C3)c(F)cc3cc(C(=O)O)c(=O)n1c23 | 2 (≈ 5.76 µM) | < -2 | > 32 | 4.8 |  |
| C[C@H]1CCc2c(N3CC[C@@H](C4(N)CC4)C3)c(F)cc3cc(C(=O)O)c(=O)n1c23 | 0.06 (≈ 0.156 µM) | -0.27 | 1 (≈ 2.59 µM) |  |  |
| C[C@H]1COc2c(N3CC(CN)C4(CCC4)C3)c(F)cc3cc(C(=O)O)c(=O)n1c23 (stereo partly specified) | 0.125 (≈ 0.311 µM) | -0.66 | 2 (≈ 4.98 µM) | 5.2 |  |
| Cc1c(N2CC[C@@H](C3(N)CC3)C2)c(F)cc2cc(C#N)c(=O)n(C3CC3)c12 | 0.06 (≈ 0.164 µM) | 1.19 | 0.06 (≈ 0.164 µM) | 8.4 |  |
| Cc1c(N2CCC(C3(N)CC3)C2)c(F)cc2c(Cc3cc(O)no3)cc(=O)n(C3CC3)c12 (stereo unspecified) | 8 (≈ 18.2 µM) | -0.9 | 8 (≈ 18.2 µM) | 3.9 |  |
| Cc1c(N2CCC(C3(N)CC3)C2)c(F)cc2c(Cc3noc(=O)[nH]3)cc(=O)n(C3CC3)c12 (stereo unspecified) | 4 (≈ 9.1 µM) | -0.74 | 32 (≈ 72.8 µM) | 5.1 |  |
| Cc1c(N2CCC(C3(N)CC3)C2)c(F)cc2cc(C(=O)O)c(=O)n(C3CC3)c12 (stereo unspecified) | 0.06 (≈ 0.156 µM) | -0.97 | 1 (≈ 2.59 µM) | 5.2 | EC50 (HepG2): > 100 µM; half-life at 24 h (in vivo [5]): 1.32 h; Cmax at 24 h (in vivo [6]): 2000 nM; fraction unbound at 4 h, 10 µM (in vitro [7]): 0.22; EC50 (K562): > 100 µM; fraction unbound at 4 h, 10 µM (in vitro [8]): 0.48; fraction unbound at 4 h, 10 µM (in vitro [9]): 0.25; Tmax at 24 h (in vivo [10]): 1 h; AUC(0-inf) at 24 h (in vivo [11]): 7.62 µM·h; Vd at 24 h (in vivo [12]): 0.69 L/kg |
| CO[C@@H]1CC[C@@H](N)[C@H]2CN(c3c(F)cc4cc(C(=O)O)c(=O)n5c4c3OC[C@@H]5C)CC12 (single isomer, unassigned) | ≤ 0.03 | -1.28 | 0.25 (≈ 0.579 µM) | 4.9 |  |
| Cc1c(N2CCC(C3(N)CC3)C2)c(F)cc2c(-c3noc(=S)[nH]3)cc(=O)n(C3CC3)c12 (stereo unspecified) | 4 (≈ 9.06 µM) |  | 4 (≈ 9.06 µM) | 2 |  |
| Cc1c(N2CC[C@@H](C3(N)CC3)C2)c(F)cc2cc(C(N)=O)c(=O)n(C3CC3)c12 | 0.25 (≈ 0.65 µM) |  | 1 (≈ 2.6 µM) | 8.4 |  |
